This is an account of results in ChEMBL document CHEMBL1201862, “PubChem BioAssay data set” (2004).

Some test systems named below: MDA-MB-231; HL-60; HOP-62; NCI-H23; UO-31; SNB-75; IGROV-1; CAKI-1; OVCAR-4; MDA-MB-435; KM12; K562; A549; OVCAR-8; OVCAR-3; BT-549; MCF7; SK-MEL-2; EKVX; 786-0.
Assay in all cases: NCI-60 cell line screen, 48 h

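96-well plates; 48 h exposure; 5 concentrations. Endpoints by linear interpolation between flanking doses. Not reached: highest tested concentration assigned. Here, GI50 denotes the concentration required for 50% inhibition of growth.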 Calls of active or inactive are those of the source. Cut-off read from the data, not from the text of the source: active = GI50 up to about 1.1 µM and inactive = higher. A value given as a limit tells only on which side of the number the result lay.

On to `O=C(O)c1c(CC(Cc2ccccc2)C(=O)O)ccc2c1CCC2` (stereo not given), for which the GI50 in the test on MDA-MB-231, with HL-60, in the test on HOP-62, in the test on NCI-H23, in the test on UO-31 and in the test with SNB-75 was > 100 µM (inactive) throughout. In addition, the GI50 with IGROV-1, with CAKI-1, with OVCAR-4, in the test on MDA-MB-435, in the test on KM12 and with K562 was > 100 µM (inactive) each time. Further, the GI50 in the test on A549, in the test with OVCAR-8, in the test on OVCAR-3, in the test on BT-549, with MCF7 and with SK-MEL-2 was > 100 µM (inactive) each time. The GI50 in the test on EKVX and with 786-0 was > 100 µM (inactive) each time.
For `C=C1CC(COc2ccc3c(C)c(Cl)c(=O)oc3c2)(c2ccccc2)OC1=O` (stereo not given), the GI50 is 3.78 µM (inactive) in the test with MDA-MB-231; 0.277 µM (active) with HL-60; 7.03 µM (inactive) with HOP-62; 1.57 µM (inactive) with NCI-H23; 3.33 µM (inactive) in the test with UO-31; 3.47 µM (inactive) with SNB-75. The GI50 in the test with IGROV-1 was 1.94 µM (inactive); in the test on CAKI-1, 1.37 µM (inactive); with OVCAR-4, 1.67 µM (inactive); in the test with MDA-MB-435, 2.45 µM (inactive); in the test on KM12 it was 2.48 µM (inactive); in the test on K562 it was 0.422 µM (active). Further, the GI50 with A549 was 11.9 µM (inactive); in the test on OVCAR-8, 2.06 µM (inactive); in the test on OVCAR-3, 2.14 µM (inactive); in the test with BT-549, 1.53 µM (inactive); with MCF7 it was 1.08 µM (active); with SK-MEL-2, 1.75 µM (inactive). Besides, the GI50 in the test with EKVX was 10.5 µM (inactive); in the test on 786-0, 1.51 µM (inactive).
For `Cn1c2c(c3c(=O)[nH]ncc31)Cc1ccccc1-2`, the GI50 is 14 µM (inactive) with MDA-MB-231; 14.7 µM (inactive) in the test with HL-60; 22.5 µM (inactive) in the test on HOP-62; 24.3 µM (inactive) in the test on NCI-H23; 5.53 µM (inactive) with UO-31; 16.1 µM (inactive) with SNB-75. For the same compound, the GI50 is 6.79 µM (inactive) in the test with IGROV-1; 13.3 µM (inactive) in the test on CAKI-1; 21.3 µM (inactive) in the test with OVCAR-4; 14.3 µM (inactive) in the test with MDA-MB-435; 16.3 µM (inactive) in the test on KM12; 18.2 µM (inactive) in the test with K562. The GI50 in the test with A549 is 6.56 µM (inactive); in the test on OVCAR-8, 11.7 µM (inactive); in the test on OVCAR-3, 12.7 µM (inactive); with BT-549 it was 18.3 µM (inactive); with MCF7 it was 11.5 µM (inactive); in the test on SK-MEL-2, 21.3 µM (inactive). Besides, the GI50 in the test on EKVX is 22.7 µM (inactive); with 786-0 it was 6.37 µM (inactive).
`Cn1c(N)c(/C=C/C(=O)Oc2ccccc2)c(=O)n(C)c1=O`: the GI50 in the test on MDA-MB-231 was > 100 µM (inactive); in the test on HL-60, > 100 µM (inactive); in the test on HOP-62 it was 19.1 µM (inactive); in the test with NCI-H23 it was > 100 µM (inactive); in the test with UO-31 it was 49.7 µM (inactive); in the test with SNB-75, 24.2 µM (inactive). The GI50 is 67.9 µM (inactive) with IGROV-1; 29 µM (inactive) in the test with CAKI-1; > 100 µM (inactive) with OVCAR-4; > 100 µM (inactive) with MDA-MB-435; > 100 µM (inactive) in the test with KM12; > 100 µM (inactive) in the test on K562. Further, the GI50 in the test with A549 is > 100 µM (inactive); with OVCAR-8, 30.6 µM (inactive); in the test on OVCAR-3, > 100 µM (inactive); with BT-549, > 100 µM (inactive); with MCF7, 47.9 µM (inactive); in the test on SK-MEL-2 it was > 100 µM (inactive). Besides, the GI50 in the test with EKVX was > 100 µM (inactive); in the test on 786-0, 78.9 µM (inactive).
